Reference: patent US7012086B1, “Treatment of retrovirus induced derangements with niacin compounds” (The Foundation For Innovative Therapies, Inc., priority 2000, dated 2006)

Assays:
[1] = test system: HIV infected persons; assay: Clinical trial of niacin (nicotinamide) in HIV infected persons: plasma amino acids by HPLC, tolerability; format: in vivo, human
Description: Four HIV infected persons participated in a trial of niacin in the form of nicotinamide. The participants were at various stages of their HIV infection as judged by their CD4 counts which ranged from 0 to 620 [see table 1]. […] Two of the participants had known co-infections infections typical of HIV infected persons. Each participant took 3 grams of nicotinamide per day for 2 months. […] Each participant's plasma tryptophan was measured prior to treatment and at the end of treatment [see table 3]. […] All amino acid concentrations were measured by High Performance Liquid Chromotography [HPLC].

[2] = test system: HIV infected persons; details: cited from earlier work

SMILES: O=C(O)c1cccnc1 [Niacin]
- tryptophan status (plasma tryptophan), in words ([1]; four patients across the range of baseline CD4 count, antiviral medication and co-infections): improve tryptophan status in all four patients

SMILES: NC(=O)c1cccnc1 [nicotinamide]
- adverse side effects of treatment ([1]; 3 grams of nicotinamide per day for 2 months, four HIV infected persons): not associated with any adverse side effects
- average increase of plasma tryptophan of all participants ([1]; 3 grams of nicotinamide per day orally for 2 months, four HIV infected persons, before vs end of treatment, p=0.0112 (paired t-test)): 43.9%

SMILES: Cc1cn([C@H]2C[C@H](N=[N+]=[N-])[C@@H](CO)O2)c(=O)[nH]c1=O [Zidovudine, zidovudine]
- effect on plasma tryptophan in HIV infected persons ([2]; HIV infected persons): replete plasma tryptophan
- side effects ([2]; in vivo): headache, nausea, and bone marrow suppression
